Values joined by “and” are separate entries in the source; they are usually repeats but may differ in a detail not shown here. Equal values may be shown once.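 Results reflect a 48-hour exposure of cells in 96-well plates to compound at five concentrations. GI50 = concentration required for 50% inhibition of growth. TGI denotes the concentration required for complete inhibition of growth.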
How the values were obtained:
Experiment in all cases: NCI tumour cell line growth inhibition, 48 h
DLD-1 colon = system: DLD-1 colon
DMS 114 small cell lung = system: DMS 114 small cell lung
DMS 273 small cell lung = system: DMS 273 small cell lung
HCC-2998 colon = system: HCC-2998 colon
HL-60(TB) leukemia = system: HL-60(TB) leukemia
HOP-18 NSCLC = system: HOP-18 NSCLC
HS 578T breast = system: HS 578T breast
K-562 leukemia = system: K-562 leukemia
KM20L2 colon = system: KM20L2 colon
M14 melanoma = system: M14 melanoma
MDA-MB-231 breast = system: MDA-MB-231 breast
MDA-MB-435 = system: MDA-MB-435
MDA-N = system: MDA-N
OVCAR-4 ovarian = system: OVCAR-4 ovarian
OVCAR-8 ovarian = system: OVCAR-8 ovarian
P388 leukemia = system: P388 leukemia
SF-539 CNS = system: SF-539 CNS
SK-MEL-2 melanoma = system: SK-MEL-2 melanoma
SN12K1 renal = system: SN12K1 renal
SNB-78 CNS = system: SNB-78 CNS
A498 renal = system: A498 renal
A549 NSCLC = system: A549 NSCLC
CCRF-CEM leukemia = system: CCRF-CEM leukemia
EKVX NSCLC = system: EKVX NSCLC
HCT-116 colon = system: HCT-116 colon
HCT-15 colon = system: HCT-15 colon
HOP-62 NSCLC = system: HOP-62 NSCLC
HOP-92 NSCLC = system: HOP-92 NSCLC
HT29 colon = system: HT29 colon
IGROV1 ovarian = system: IGROV1 ovarian
KM12 colon = system: KM12 colon
LOX IMVI melanoma = system: LOX IMVI melanoma
M19-MEL melanoma = system: M19-MEL melanoma
MALME-3M melanoma = system: MALME-3M melanoma
MCF7 breast = system: MCF7 breast
MOLT-4 leukemia = system: MOLT-4 leukemia
NCI-H226 lung = system: NCI-H226 lung
NCI-H23 lung = system: NCI-H23 lung
NCI-H460 lung = system: NCI-H460 lung
NCI-H522 lung = system: NCI-H522 lung
NCI/ADR-RES ovarian = system: NCI/ADR-RES ovarian
OVCAR-3 ovarian = system: OVCAR-3 ovarian
OVCAR-5 ovarian = system: OVCAR-5 ovarian
RPMI-8226 leukemia = system: RPMI-8226 leukemia
RXF 393 renal = system: RXF 393 renal
SF-268 CNS = system: SF-268 CNS
SF-295 CNS = system: SF-295 CNS
SK-MEL-28 melanoma = system: SK-MEL-28 melanoma
SK-MEL-5 melanoma = system: SK-MEL-5 melanoma
SK-OV-3 ovarian = system: SK-OV-3 ovarian
SN12C renal = system: SN12C renal
SNB-75 CNS = system: SNB-75 CNS
SW-620 colon = system: SW-620 colon
U251 CNS = system: U251 CNS
UACC-257 melanoma = system: UACC-257 melanoma
UACC-62 melanoma = system: UACC-62 melanoma
UO-31 renal = system: UO-31 renal
XF 498 CNS = system: XF 498 CNS

SMILES: CO[C@H]1C[C@@H]2CC[C@@H](C)[C@@](O)(O2)C(=O)C(=O)N2CCCC[C@H]2C(=O)O[C@H]([C@H](C)C[C@@H]2CC[C@@H](O)[C@H](OC)C2)CC(=O)[C@H](C)C=C(C)[C@@H](O)[C@@H](OC)C(=O)[C@H](C)C[C@H](C)/C=C/C=C/C=C1C
- TGI (DLD-1 colon): 25.2 µM
- TGI (DMS 114 small cell lung): 31.5 µM
- TGI (DMS 273 small cell lung): 33.7 µM
- TGI (HCC-2998 colon): 13.8 µM and 26.6 µM and 47.9 µM
- TGI (HL-60(TB) leukemia): 24.2 µM and 144 µM
- TGI (HOP-18 NSCLC): 133 µM
- TGI (HS 578T breast): 13.7 µM and 86.4 µM
- TGI (K-562 leukemia): 40.5 µM and 365 µM
- TGI (KM20L2 colon): 41.5 µM
- TGI (M14 melanoma): 27.2 µM and 144 µM
- TGI (MDA-MB-231 breast): 26.3 µM and 170 µM
- TGI (MDA-MB-435): 25.9 µM and 126 µM
- GI50 (MDA-N): 79.1 µM
- TGI (OVCAR-4 ovarian): 6.85 µM and 27 µM
- TGI (OVCAR-8 ovarian): 27.7 µM and 62 µM and 243 µM
- TGI (P388 leukemia): 27.8 µM
- TGI (SF-539 CNS): 14.6 µM and 22.4 µM and 82.9 µM
- TGI (SK-MEL-2 melanoma): 17.6 µM and 34.9 µM and 67.2 µM
- TGI (SN12K1 renal): 20.9 µM
- TGI (SNB-78 CNS): 16.9 µM

SMILES: O=C1c2ccccc2OCC1/C=N/O (configuration not stated)
- TGI (A498 renal): > 100 µM
- TGI (A549 NSCLC): > 100 µM
- TGI (CCRF-CEM leukemia): > 100 µM
- TGI (DLD-1 colon): > 100 µM
- TGI (DMS 114 small cell lung): 98.9 µM
- TGI (DMS 273 small cell lung): > 100 µM
- TGI (EKVX NSCLC): > 100 µM
- TGI (HCC-2998 colon): > 100 µM
- TGI (HCT-116 colon): > 100 µM
- TGI (HCT-15 colon): > 100 µM
- TGI (HL-60(TB) leukemia): > 100 µM
- TGI (HOP-18 NSCLC): > 100 µM
- TGI (HOP-62 NSCLC): > 100 µM
- TGI (HOP-92 NSCLC): > 96 µM
- TGI (HT29 colon): > 100 µM
- TGI (IGROV1 ovarian): > 100 µM
- TGI (K-562 leukemia): > 100 µM
- TGI (KM12 colon): > 100 µM
- TGI (LOX IMVI melanoma): > 100 µM
- TGI (M19-MEL melanoma): > 100 µM
- TGI (MALME-3M melanoma): > 100 µM
- TGI (MCF7 breast): > 100 µM
- TGI (MOLT-4 leukemia): > 100 µM
- TGI (NCI-H226 lung): > 100 µM
- TGI (NCI-H23 lung): > 100 µM
- TGI (NCI-H460 lung): > 100 µM
- TGI (NCI-H522 lung): 62.1 µM
- TGI (NCI/ADR-RES ovarian): > 100 µM
- TGI (OVCAR-3 ovarian): > 100 µM
- TGI (OVCAR-4 ovarian): > 100 µM
- TGI (OVCAR-5 ovarian): > 100 µM
- TGI (OVCAR-8 ovarian): > 100 µM
- TGI (P388 leukemia): > 63.7 µM
- TGI (RPMI-8226 leukemia): > 100 µM
- TGI (RXF 393 renal): 76.4 µM
- TGI (SF-268 CNS): > 100 µM
- TGI (SF-295 CNS): > 100 µM
- TGI (SF-539 CNS): > 100 µM
- TGI (SK-MEL-2 melanoma): > 100 µM
- TGI (SK-MEL-28 melanoma): > 100 µM
- TGI (SK-MEL-5 melanoma): > 100 µM
- TGI (SK-OV-3 ovarian): > 100 µM
- TGI (SN12C renal): > 100 µM
- TGI (SN12K1 renal): > 100 µM
- TGI (SNB-75 CNS): > 100 µM
- TGI (SNB-78 CNS): > 100 µM
- TGI (SW-620 colon): > 100 µM
- TGI (U251 CNS): > 100 µM
- TGI (UACC-257 melanoma): > 100 µM
- TGI (UACC-62 melanoma): > 100 µM
- TGI (UO-31 renal): > 100 µM
- TGI (XF 498 CNS): > 100 µM

— PubChem BioAssay (NCI)
